Laboratory results taken from US11952344B2, “Heterocyclic compound and use thereof” (TAKEDA PHARMACEUTICAL COMPANY LIMITED, priority 2019, dated 2024).

Assays:
[1] = target: T1, NMDA receptor containing the NR2B subunit (Homo sapiens, UniProt Q13224); details: continuous intravenous administration; cited from earlier work
[2] = target: T2, NMDA receptor containing the NR2B subunit (Rattus norvegicus, UniProt Q00960); details: rodents; cited from earlier work
[3] = target: T1, NMDA receptor containing the NR2B subunit; details: in vivo; cited from earlier work
[4] = target: T3, Human NMDA (NR1/NR2B) Receptor (Homo sapiens, UniProt Q13224); test: NR2B Ca2+ influx assay; format: cell-based; details: 10 μM compound; HEK293 cells expressing GRIN1 and GRIN2B; glutamic acid/glycine-induced Ca2+ influx, Fluo-4 fluorescence; read-out: inhibitory rate (10 μM compound concentration)
T3 construct: host or cells: HEK293
Summary of the method: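 HEK293 cells stably expressing human GRIN1/GRIN2B were tetracycline-induced for 2 h, loaded with Fluo-4AM and preincubated 15 min at room temperature with compound at 10 μM final. Ca2+ influx was triggered by glutamic acid and glycine and fluorescence (ex 480/em 540 nm) was recorded for 5 min. Inhibition was computed from cumulative fluorescence.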

[5] = target: T2, NMDA receptor containing the NR2B subunit; test: [3H]MK-801 binding test in vivo (hippocampus); parameters: from tissue; host or cells: rat hippocampus (Sprague Dawley); species or system Sprague Dawley rats; details: po, [3H]MK-801 binding inhibitory rate, 1 mg/kg p.o., vehicle = 100% binding, excess MK-801 maleate = 0%
Description: Experimental Example 2 [^3H]MK-801 Binding Test In Vivo
In order to confirm “functional antagonistic action on an NMDA receptor containing the NR2B subunit in vivo” which the compound of the present invention has, binding test was performed using tritium-labeled form of MK-801 ((5R,10S)-5-methyl-10,11-dihydro-5H-5,10-epiminodibenzo[a,d][7]annulene) ([^3H]MK-801), which is a compound capable of binding to the opening site of the NMDA receptor.
The example compound (1 mg/kg/2 mL, 0.5% MC water) or vehicle ([…], 0.5% MC water) was orally administered (p.o.) to Sprague Dawley rats (body weight 180-260 g). After a certain time (around after time-to maximum blood concentration), [^3H]MK-801 (20 μCi/kg/mL, Muromachi Kikai) was intravenously administered. After 10 min, the rats were euthanized by decapitation, and subjected to craniotomy, and the hippocampus was collected. The collected hippocampus was homogenized in 30 volumes (30 mL per 1 g tissue) ice-cooled 20 mM Hepes (pH7.5, Hampton Research) using a homogenizer (T10 basic Ultra-Turrax) for […]. […] The filter was washed four times with ice-cooled saline (5 mL, Otsuka Pharmaceutical), put into a scintillation vial, and then 10 mL of liquid scintillator A (FUJIFILM Wako Pure Chemical Corporation) was added thereto, and the residual radioactivity was counted using liquid scintillation counter (ALOKA LSC-6100). Separately, the residual radioactivity in 100 μL of the homogenate before the filtration was counted in the same way. The value of [the residual radioactivity in the filter/the residual radioactivity in the 100 μL of the homogenate] was calculated as a [^3H]MK-801 binding rate to the NMDA receptor expressing in each individual hippocampus tissue. […] The difference between the percentage of [^3H]MK-801 binding rate in the group orally administered with the example compound and that in the vehicle control group (100%) was analyzed as [^3H]MK-801 binding inhibitory rate by the example compound.

NMDA receptor [6] = details: single intravenous administration; major depression and bipolar disorder; cited from earlier work
NMDA receptor [7] = details: in vivo; cited from earlier work

T3 sequence (Q13224 27-1484, other chains not shown): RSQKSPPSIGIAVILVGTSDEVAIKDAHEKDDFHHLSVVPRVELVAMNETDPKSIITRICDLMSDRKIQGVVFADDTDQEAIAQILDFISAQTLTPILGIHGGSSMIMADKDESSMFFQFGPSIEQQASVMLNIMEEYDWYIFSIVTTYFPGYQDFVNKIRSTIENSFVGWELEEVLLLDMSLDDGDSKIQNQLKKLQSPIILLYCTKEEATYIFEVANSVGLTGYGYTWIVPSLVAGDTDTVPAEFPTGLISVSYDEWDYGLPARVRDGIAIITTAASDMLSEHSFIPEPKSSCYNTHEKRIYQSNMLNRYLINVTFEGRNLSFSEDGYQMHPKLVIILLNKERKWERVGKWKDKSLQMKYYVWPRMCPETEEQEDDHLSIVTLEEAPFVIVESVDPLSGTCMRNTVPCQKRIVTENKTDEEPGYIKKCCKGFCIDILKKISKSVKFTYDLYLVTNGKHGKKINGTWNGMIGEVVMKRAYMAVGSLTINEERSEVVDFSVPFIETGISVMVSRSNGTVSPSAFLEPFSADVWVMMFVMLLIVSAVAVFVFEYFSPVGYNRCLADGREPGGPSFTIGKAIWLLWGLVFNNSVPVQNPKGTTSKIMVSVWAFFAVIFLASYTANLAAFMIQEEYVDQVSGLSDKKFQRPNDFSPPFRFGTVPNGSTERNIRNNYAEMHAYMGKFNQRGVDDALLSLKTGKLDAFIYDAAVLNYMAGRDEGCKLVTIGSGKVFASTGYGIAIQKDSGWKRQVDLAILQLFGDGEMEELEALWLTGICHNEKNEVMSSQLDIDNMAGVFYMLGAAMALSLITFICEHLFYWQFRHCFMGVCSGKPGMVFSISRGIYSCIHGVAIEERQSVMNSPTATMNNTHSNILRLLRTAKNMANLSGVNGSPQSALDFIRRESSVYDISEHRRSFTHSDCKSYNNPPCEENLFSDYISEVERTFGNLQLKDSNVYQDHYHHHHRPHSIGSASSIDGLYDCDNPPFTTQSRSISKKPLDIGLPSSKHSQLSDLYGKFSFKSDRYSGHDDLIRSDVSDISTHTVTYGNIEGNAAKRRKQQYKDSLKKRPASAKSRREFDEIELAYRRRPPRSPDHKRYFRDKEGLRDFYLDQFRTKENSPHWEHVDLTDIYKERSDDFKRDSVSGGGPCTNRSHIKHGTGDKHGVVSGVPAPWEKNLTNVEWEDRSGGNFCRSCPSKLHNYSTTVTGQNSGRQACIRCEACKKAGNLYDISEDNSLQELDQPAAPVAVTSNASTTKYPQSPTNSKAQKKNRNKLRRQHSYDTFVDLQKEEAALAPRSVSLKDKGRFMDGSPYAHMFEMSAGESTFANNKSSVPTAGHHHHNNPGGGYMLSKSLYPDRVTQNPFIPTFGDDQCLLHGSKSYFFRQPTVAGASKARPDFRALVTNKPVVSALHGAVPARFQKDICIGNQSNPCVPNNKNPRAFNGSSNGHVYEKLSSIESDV
T2 sequence (Q00960 27-1482, other chains not shown): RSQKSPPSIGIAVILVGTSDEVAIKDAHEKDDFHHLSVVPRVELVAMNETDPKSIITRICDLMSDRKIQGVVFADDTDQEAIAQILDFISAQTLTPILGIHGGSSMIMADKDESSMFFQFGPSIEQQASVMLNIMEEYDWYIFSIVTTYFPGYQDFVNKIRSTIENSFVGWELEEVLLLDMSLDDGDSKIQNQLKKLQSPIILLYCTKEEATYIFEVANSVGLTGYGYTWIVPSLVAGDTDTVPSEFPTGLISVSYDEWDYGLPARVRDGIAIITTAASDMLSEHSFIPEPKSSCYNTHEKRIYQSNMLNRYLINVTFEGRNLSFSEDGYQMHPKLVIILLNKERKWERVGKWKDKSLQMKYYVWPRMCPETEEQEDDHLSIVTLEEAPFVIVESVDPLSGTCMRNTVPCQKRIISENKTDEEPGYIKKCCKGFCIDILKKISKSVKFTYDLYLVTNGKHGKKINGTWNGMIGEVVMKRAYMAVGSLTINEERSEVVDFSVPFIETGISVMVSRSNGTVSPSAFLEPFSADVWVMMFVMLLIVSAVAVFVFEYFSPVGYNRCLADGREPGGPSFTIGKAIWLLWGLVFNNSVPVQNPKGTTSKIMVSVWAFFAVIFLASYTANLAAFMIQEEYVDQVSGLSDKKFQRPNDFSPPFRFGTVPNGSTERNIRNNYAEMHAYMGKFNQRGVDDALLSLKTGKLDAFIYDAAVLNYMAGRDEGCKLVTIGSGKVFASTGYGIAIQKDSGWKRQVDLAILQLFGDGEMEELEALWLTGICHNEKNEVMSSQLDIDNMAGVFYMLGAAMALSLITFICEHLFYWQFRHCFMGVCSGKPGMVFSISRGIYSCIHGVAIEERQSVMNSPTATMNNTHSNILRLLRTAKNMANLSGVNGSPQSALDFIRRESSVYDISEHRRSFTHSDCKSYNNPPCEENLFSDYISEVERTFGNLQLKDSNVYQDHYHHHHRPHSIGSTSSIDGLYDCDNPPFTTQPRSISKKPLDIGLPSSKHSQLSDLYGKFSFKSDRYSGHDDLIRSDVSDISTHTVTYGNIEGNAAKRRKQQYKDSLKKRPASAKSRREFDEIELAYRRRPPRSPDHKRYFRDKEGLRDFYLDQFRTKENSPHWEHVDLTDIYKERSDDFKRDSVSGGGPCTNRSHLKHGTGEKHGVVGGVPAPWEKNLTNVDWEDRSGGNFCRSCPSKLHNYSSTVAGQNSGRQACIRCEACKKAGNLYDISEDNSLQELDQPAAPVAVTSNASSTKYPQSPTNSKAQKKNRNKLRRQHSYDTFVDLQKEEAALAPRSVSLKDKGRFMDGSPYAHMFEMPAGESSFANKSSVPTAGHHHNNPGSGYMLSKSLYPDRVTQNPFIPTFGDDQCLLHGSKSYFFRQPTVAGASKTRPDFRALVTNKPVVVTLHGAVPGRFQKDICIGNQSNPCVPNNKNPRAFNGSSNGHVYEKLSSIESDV
T1 sequence (Q13224 27-1484, other chains not shown): as the sequence (Q13224 27-1484, other chains not shown) above

| Compound | inhibition at 10 µM [4] [%] | inhibition at 1 mg/kg [5] [%] | further results |
| --- | --- | --- | --- |
| C[C@@H]([C@@H](O)c1ccc(O)cc1)N1CCC(O)(c2ccccc2)CC1 [CP-101, 606] |  |  | improvement of treatment resistant-depression symptom [1]: significantly improves treatment resistant-depression symptom; number of occurrence and depth of cortical spreading depression [2]: suppress the number of occurrence and the depth of cortical spreading depression |
| CC(C(O)c1ccc(O)cc1)N1CCC(Cc2ccccc2)CC1 (centres unmarked) [Ifenprodil] |  |  | pain sense threshold [3]: the pain sense threshold increases |
| COc1cncc(CNC(=O)c2cnc(OC(F)F)c(F)c2)c1 [Example 42, 6-(difluoromethoxy)-5-fluoro-N-[(5-methoxypyridin-3-yl)methyl]pyridine-3-carboxamide] | 94 | 14 |  |
| COc1ncncc1CNC(=O)c1cnc(OC(F)F)c(F)c1 [Example 12, 6-(difluoromethoxy)-5-fluoro-N-[(4-methoxypyrimidin-5-yl)methyl]pyridine-3-carboxamide] | 92 | 23 |  |
| C[C@@H](CN1CCC(Cc2ccccc2)CC1)[C@@H](O)c1ccc(O)cc1 [Ro25-6981] |  |  | number of occurrence and depth of cortical spreading depression [2]: suppress the number of occurrence and the depth of cortical spreading depression |
| CNC1(c2ccccc2Cl)CCCCC1=O (centres unmarked) [ketamine] |  |  | improvement of depression symptom (NMDA receptor [6]): improves depression symptom accompanying major depression and bipolar disorder rapidly and in a sustained manner |
| COc1ncncc1CNC(=O)c1cc(F)c(OC(F)F)c(F)c1 [Example 63, 4-(difluoromethoxy)-3,5-difluoro-N-[(4-methoxypyrimidin-5-yl)methyl]benzamide] | 90 | 10 |  |
| CC12CC3CC(C)(C1)CC(N)(C3)C2 [memantine] |  |  | improvement of peripheral symptoms of dementia (NMDA receptor [7]): partially improves peripheral symptoms of dementia |
| COc1c(F)cncc1CNC(=O)c1cnc(OC(F)F)c(F)c1 [Example 6, 6-(difluoromethoxy)-5-fluoro-N-[(5-fluoro-4-methoxypyridin-3-yl)methyl]pyridine-3-carboxamide] | 95 |  |  |
| O=C(NCc1cncnc1C1CC1(F)F)c1cnc(OC(F)F)c(F)c1 (centres unmarked) [Example 37, N-{[4-(2,2-difluorocyclopropyl)-pyrimidin-5-yl]methyl}-6-(difluoromethoxy)-5-fluoropyridine-3-carboxamide] | 84 |  |  |
